Results taken from patent US20020137929A1, “1 - (3-heterocyclylphenyl) isothiourea, -isourea, -guanidine and -amidine herbicidal agents” (Intellectual Property Department, BASF Aktiengesellschaft, priority 1998, published 2002).

Columns and labels:
CASOB (Sicklepod) [1] = experiment: Postemergence herbicidal evaluation; assay type: in vivo, Cassia obtusifolia; settings: postemergence
In short: (§1)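 Two-week seedlings sprayed postemergence at 40 psi; formulation: 1:1 acetone/water, 0.5% TWEEN 20; application ≈0.0156–0.500 kg/ha. Greenhouse grow-out, then 0–9 visual scoring at 4–5 weeks.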

ORYSAT (Rice, Tebonnet) = experiment: Postemergence herbicidal evaluation; assay type: in vivo, Oryza sativa, (L.) Tebonnet; settings: postemergence
In short: as §1

GALAP (Galium) [2] = experiment: Postemergence herbicidal evaluation; assay type: in vivo, Galium aparine; settings: postemergence
In short: as §1

[3] = system: CHEAL (Lambsquarters, Common); experiment: Preemergence herbicidal evaluation; assay type: in vivo, Chenopodium album; settings: rated 4-5 weeks after treatment
In short: (§2)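 Visual 0-9 rating vs control (stand, vigor, malformation, size, chlorosis, overall appearance), scored 4-5 wk after spraying. Seeded soil cups were treated preemergence with compound in aqueous acetone, ~0.0156-0.500 kg/ha equivalent.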

SETVI (Foxtail, Green) [4] = experiment: Postemergence herbicidal evaluation; assay type: in vivo, Setaria viridis; settings: postemergence
In short: as §1

ECHCG (Barnyardgrass) = experiment: Preemergence herbicidal evaluation; assay type: in vivo, Echinochloa crus-galli; settings: rated 4-5 weeks after treatment
In short: as §2

SETVI (Foxtail, Green) [5] = experiment: Preemergence herbicidal evaluation; assay type: in vivo, Setaria viridis; settings: rated 4-5 weeks after treatment
In short: as §2

AMBEL (Ragweed, Common) [6] = experiment: Postemergence herbicidal evaluation; assay type: in vivo, Ambrosia artemisifolia; settings: postemergence
In short: as §1

GALAP (Galium) [7] = experiment: Preemergence herbicidal evaluation; assay type: in vivo, Galium aparine; settings: rated 4-5 weeks after treatment
In short: as §2

[8] = system: IPOHE (Morningglory, Ivyleaf); experiment: Postemergence herbicidal evaluation; assay type: in vivo, Ipomoea hederacea; settings: postemergence
In short: as §1

[9] = system: TRZAWR (Wheat, Winter, cv Riband); experiment: Postemergence herbicidal evaluation; assay type: in vivo, Triticum aestivum; settings: postemergence
In short: as §1

AMBEL (Ragweed, Common) [10] = experiment: Preemergence herbicidal evaluation; assay type: in vivo, Ambrosia artemisifolia; settings: rated 4-5 weeks after treatment
In short: as §2

[11] = system: ECHORC (Watergrass (Calif.)); experiment: Preemergence weed control under flooded paddy conditions; assay type: in vivo, Echinochloa oryzoides; settings: rated 3-4 weeks after treatment
In short: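 First, seeds or propagules go into the top 0.5 cm of silt loam; next, water is held 1.5 to 3 cm over the soil; then compound (50/50 acetone/water) is pipetted into it at about 0.0313 to 0.500 kg/ha; finally plants are rated visually 0-9 after three to four weeks.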

ZEAMX (Corn, Field) = experiment: Postemergence herbicidal evaluation; assay type: in vivo, Zea mays; settings: postemergence
In short: as §1

CASOB (Sicklepod) [12] = experiment: Preemergence herbicidal evaluation; assay type: in vivo, Cassia obtusifolia; settings: rated 4-5 weeks after treatment
In short: as §2

[13] = system: SAGPY (Arrowhead (Pygmaea)); experiment: Preemergence weed control under flooded paddy conditions; assay type: in vivo, Sagittaria pygmaea; settings: rated 3-4 weeks after treatment
In short: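 Seeds or propagules sown in silt loam kept flooded 1.5-3 cm; compounds in 50/50 acetone/water pipetted into flood water at about 0.0313 to 0.500 kg/ha. Greenhouse; visual 0-9 rating versus untreated control 3-4 weeks after treatment.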

[14] = system: TRZAWR (Wheat, Winter, cv Riband); experiment: Preemergence herbicidal evaluation; assay type: in vivo, Triticum aestivum; settings: rated 4-5 weeks after treatment
In short: as §2

COC(=O)C(C)OC(=O)CN1C(=O)CSC1=Nc1cc(-n2c(=O)cc(C(F)(F)F)n(C)c2=O)c(F)cc1Cl (stereo not shown) [Compound 116, 2-{{2-Chloro-5-[3,6-dihydro-3-methyl-2,6-dioxo-4-(trifluoromethyl)-1(2H)-pyrimidinyl]-4-fluorophenyl}imino}-4-oxo-3-thiazolidineacetic acid, ester with methyl lactate]
Herbicidal rating CASOB (CASOB (Sicklepod) [1]; rate 0.0158 kg/ha): 1.0
Herbicidal rating CASOB (CASOB (Sicklepod) [1]; rate 0.0315 kg/ha): 1.0
Herbicidal rating CASOB (CASOB (Sicklepod) [1]; rate 0.0630 kg/ha): 1.0
Herbicidal rating ORYSAT (ORYSAT (Rice, Tebonnet); rate 0.0158 kg/ha): 1.5
Herbicidal rating ORYSAT (ORYSAT (Rice, Tebonnet); rate 0.0315 kg/ha): 2.0
Herbicidal rating ORYSAT (ORYSAT (Rice, Tebonnet); rate 0.0630 kg/ha): 2.0
Herbicidal rating GALAP (GALAP (Galium) [2]; rate 0.0158 kg/ha): 0.0
Herbicidal rating GALAP (GALAP (Galium) [2]; rate 0.0315 kg/ha): 0.0
Herbicidal rating GALAP (GALAP (Galium) [2]; rate 0.0630 kg/ha): 0.0
Preemergence herbicidal rating CHEAL ([3]; rate 0.0156 kg/ha): 9.0
Preemergence herbicidal rating CHEAL ([3]; rate 0.0313 kg/ha): 9.0
Preemergence herbicidal rating CHEAL ([3]; rate 0.0625 kg/ha): 4.0
Preemergence herbicidal rating CHEAL ([3]; rate 0.1250 kg/ha): 7.0
Preemergence herbicidal rating CHEAL ([3]; rate 0.2500 kg/ha): 9.0
Herbicidal rating SETVI (SETVI (Foxtail, Green) [4]; rate 0.0158 kg/ha): 1.0
Herbicidal rating SETVI (SETVI (Foxtail, Green) [4]; rate 0.0315 kg/ha): 3.0
Herbicidal rating SETVI (SETVI (Foxtail, Green) [4]; rate 0.0630 kg/ha): 3.0
Preemergence herbicidal rating ECHCG (ECHCG (Barnyardgrass); rate 0.0156 kg/ha): 0.0
Preemergence herbicidal rating ECHCG (ECHCG (Barnyardgrass); rate 0.0313 kg/ha): 0.0
Preemergence herbicidal rating ECHCG (ECHCG (Barnyardgrass); rate 0.0625 kg/ha): 0.0
Preemergence herbicidal rating ECHCG (ECHCG (Barnyardgrass); rate 0.1250 kg/ha): 0.0
Preemergence herbicidal rating ECHCG (ECHCG (Barnyardgrass); rate 0.2500 kg/ha): 0.0
Preemergence herbicidal rating SETVI (SETVI (Foxtail, Green) [5]; rate 0.0156 kg/ha): 0.0
Preemergence herbicidal rating SETVI (SETVI (Foxtail, Green) [5]; rate 0.0313 kg/ha): 0.0
Preemergence herbicidal rating SETVI (SETVI (Foxtail, Green) [5]; rate 0.0625 kg/ha): 0.0
Preemergence herbicidal rating SETVI (SETVI (Foxtail, Green) [5]; rate 0.1250 kg/ha): 0.0
Preemergence herbicidal rating SETVI (SETVI (Foxtail, Green) [5]; rate 0.2500 kg/ha): 3.0
Herbicidal rating AMBEL (AMBEL (Ragweed, Common) [6]; rate 0.0158 kg/ha): 9.0
Herbicidal rating AMBEL (AMBEL (Ragweed, Common) [6]; rate 0.0315 kg/ha): 9.0
Herbicidal rating AMBEL (AMBEL (Ragweed, Common) [6]; rate 0.0630 kg/ha): 7.0
Preemergence herbicidal rating GALAP (GALAP (Galium) [7]; rate 0.0156 kg/ha): 0.0
Preemergence herbicidal rating GALAP (GALAP (Galium) [7]; rate 0.0313 kg/ha): 0.0
Preemergence herbicidal rating GALAP (GALAP (Galium) [7]; rate 0.0625 kg/ha): 0.0
Preemergence herbicidal rating GALAP (GALAP (Galium) [7]; rate 0.1250 kg/ha): 0.0
Preemergence herbicidal rating GALAP (GALAP (Galium) [7]; rate 0.2500 kg/ha): 7.0
Herbicidal rating IPOHE ([8]; rate 0.0158 kg/ha): 9.0
Herbicidal rating IPOHE ([8]; rate 0.0315 kg/ha): 9.0
Herbicidal rating IPOHE ([8]; rate 0.0630 kg/ha): 9.0
Herbicidal rating TRZAWR ([9]; rate 0.0158 kg/ha): 1.5
Herbicidal rating TRZAWR ([9]; rate 0.0315 kg/ha): 2.5
Herbicidal rating TRZAWR ([9]; rate 0.0630 kg/ha): 2.5
Preemergence herbicidal rating AMBEL (AMBEL (Ragweed, Common) [10]; rate 0.0156 kg/ha): 0.0
Preemergence herbicidal rating AMBEL (AMBEL (Ragweed, Common) [10]; rate 0.0313 kg/ha): 0.0
Preemergence herbicidal rating AMBEL (AMBEL (Ragweed, Common) [10]; rate 0.0625 kg/ha): 2.0
Preemergence herbicidal rating AMBEL (AMBEL (Ragweed, Common) [10]; rate 0.1250 kg/ha): 2.0
Preemergence herbicidal rating AMBEL (AMBEL (Ragweed, Common) [10]; rate 0.2500 kg/ha): 1.0
herbicidal effect rating, ECHORC ([11]; 0.0313 kg/ha): 0.0
herbicidal effect rating, ECHORC ([11]; 0.0625 kg/ha): 5.0
ECHORC herbicidal effect rating ([11]; 0.1250 kg/ha): 6.0
ECHORC herbicidal effect rating ([11]; 0.2500 kg/ha): 5.0
Herbicidal rating ZEAMX (ZEAMX (Corn, Field); rate 0.0158 kg/ha): 4.5
Herbicidal rating ZEAMX (ZEAMX (Corn, Field); rate 0.0315 kg/ha): 4.5
Herbicidal rating ZEAMX (ZEAMX (Corn, Field); rate 0.0630 kg/ha): 4.5
Preemergence herbicidal rating CASOB (CASOB (Sicklepod) [12]; rate 0.0156 kg/ha): 0.0
Preemergence herbicidal rating CASOB (CASOB (Sicklepod) [12]; rate 0.0313 kg/ha): 0.0
Preemergence herbicidal rating CASOB (CASOB (Sicklepod) [12]; rate 0.0625 kg/ha): 0.0
Preemergence herbicidal rating CASOB (CASOB (Sicklepod) [12]; rate 0.1250 kg/ha): 0.0
Preemergence herbicidal rating CASOB (CASOB (Sicklepod) [12]; rate 0.2500 kg/ha): 2.0
herbicidal effect rating, SAGPY ([13]; 0.0313 kg/ha): 2.0
herbicidal effect rating, SAGPY ([13]; 0.0625 kg/ha): 3.0
SAGPY herbicidal effect rating ([13]; 0.1250 kg/ha): 5.0
SAGPY herbicidal effect rating ([13]; 0.2500 kg/ha): 6.0
Preemergence herbicidal rating TRZAWR ([14]; rate 0.0156 kg/ha): 0.0
Preemergence herbicidal rating TRZAWR ([14]; rate 0.0313 kg/ha): 0.0
Preemergence herbicidal rating TRZAWR ([14]; rate 0.0625 kg/ha): 0.0
Preemergence herbicidal rating TRZAWR ([14]; rate 0.1250 kg/ha): 0.0
Preemergence herbicidal rating TRZAWR ([14]; rate 0.2500 kg/ha): 1.0
